The record followed here is ChEMBL document CHEMBL1146151, “Polyoxometalates--a new class of potent ecto-nucleoside triphosphate diphosphohydrolase (NTPDase) inhibitors” (Bioorg Med Chem Lett, 2006).

The target of this assay is T1, Ectonucleoside triphosphate diphosphohydrolase 2 (Rattus norvegicus) (UniProt O35795).
T1 sequence (whole entry): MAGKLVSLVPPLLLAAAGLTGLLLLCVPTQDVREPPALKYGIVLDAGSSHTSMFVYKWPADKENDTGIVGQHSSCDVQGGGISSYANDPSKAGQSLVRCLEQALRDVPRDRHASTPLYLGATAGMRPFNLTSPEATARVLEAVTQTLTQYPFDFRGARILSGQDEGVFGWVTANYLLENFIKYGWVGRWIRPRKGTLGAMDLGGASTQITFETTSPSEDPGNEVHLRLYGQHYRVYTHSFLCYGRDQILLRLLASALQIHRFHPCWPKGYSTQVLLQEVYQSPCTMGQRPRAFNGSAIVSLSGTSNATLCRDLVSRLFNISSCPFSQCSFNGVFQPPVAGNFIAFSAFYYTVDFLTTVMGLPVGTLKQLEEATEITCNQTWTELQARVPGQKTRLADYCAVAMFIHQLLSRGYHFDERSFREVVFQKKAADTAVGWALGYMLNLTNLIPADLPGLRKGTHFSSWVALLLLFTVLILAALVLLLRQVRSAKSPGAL
Conditions: CHO, 1 mM.
Description: Inhibition of rat recombinant NTPDase2 expressed in CHO cells at 1 mM

The inhibition is the share of the control response that was lost under treatment. Read a low inhibition as little suppression. As for `CCN(CC)c1ncnc2c1ncn2[C@@H]1O[C@H](COP(=O)(O)OP(=O)(O)C(Br)(Br)P(=O)(O)O)[C@@H](O)[C@H]1O`, the inhibition turned out to be 50%.
